{
  "source": "paper PMC13170702",
  "about": "(Nuclear medicine and biology, 2025)",
  "origin": "cited, not measured here",
  "key": {"[1]": {"conditions": "i.v., low molar activity tracer, PET-CT; cited from earlier work"}, "[2]": {"conditions": "i.v., low molar activity tracer, PET-CT; cited from earlier work", "remark": "listed apart in the source"}},
  "note": "Like-named read-outs stand apart in the source and are kept apart here.",
  "data": [
    {"smiles": "COC(=O)[C@@H](N)CC(=O)Nc1ccc2c(c1)Cc1cc([18F])ccc1-2", "note": "[[^18F]RP-115, methyl N^4-(7-[^18F]fluoro-9H-fluoren-2-yl)asparaginate]", "values": [
      {"measurement": "CNS activity uptake (SUV)", "setting": "[1]", "result": "> 1"},
      {"measurement": "CNS activity uptake (SUV)", "setting": "[2]", "result": "> 1"}
    ]}
  ]
}
